Values quoted from earlier work, collected in patent US11737471B2, “Products having high efficacy omega-6/omega-3 balanced polyunsaturated fatty acids” (OMEGA FOODS, LLC, priority 2011, dated 2023).

Conditions: by some estimates

- conversion of ALA to DHA and EPA by the human body: less than 1%
Structure (SMILES): CC/C=C\C/C=C\C/C=C\CCCCCCCC(=O)O [ALA, alpha-linolenic acid]
